{
  "source": "ChEMBL document CHEMBL4177616",
  "about": "“Potent anti-melanogenic activity and favorable toxicity profile of selected 4-phenyl hydroxycoumarins in the zebrafish model and the computational molecular modeling studies” (Bioorg Med Chem, 2017)",
  "key": {"[1]": {"species": "Danio rerio", "assay": "Toxicity in wild type zebrafish embryos assessed as scoliosis at 2.5 ug/ml treated for 96 hrs post fertilization starting from 6 hrs post fertilization by inverted microscopic analysis relative to control", "format": "organism-based", "conditions": "in vivo"}, "[2]": {"species": "Danio rerio", "assay": "Toxicity in wild type zebrafish embryos assessed as otoliths at 2000 ug/ml treated for 96 hrs post fertilization starting from 6 hrs post fertilization by inverted microscopic analysis relative to control", "format": "organism-based", "conditions": "in vivo"}, "[3]": {"species": "Danio rerio", "assay": "Toxicity in wild type zebrafish embryos assessed as normal embryo at 1000 ug/ml treated for 96 hrs post fertilization starting from 6 hrs post fertilization by inverted microscopic analysis relative to control", "format": "organism-based", "conditions": "in vivo"}, "[4]": {"species": "Danio rerio", "assay": "Toxicity in wild type zebrafish embryos assessed as skeletal deformities at 500 ug/ml treated for 96 hrs post fertilization starting from 6 hrs post fertilization by inverted microscopic analysis relative to control", "format": "organism-based", "conditions": "in vivo"}, "[5]": {"species": "Danio rerio", "assay": "Toxicity in wild type zebrafish embryos assessed as eyes at 500 ug/ml treated for 96 hrs post fertilization starting from 6 hrs post fertilization by inverted microscopic analysis relative to control", "format": "organism-based", "conditions": "in vivo"}, "[6]": {"species": "Danio rerio", "assay": "Toxicity in wild type zebrafish embryos assessed as unhatched embryo at 100 ug/ml treated for 96 hrs post fertilization starting from 6 hrs post fertilization by inverted microscopic analysis relative to control", "format": "organism-based", "conditions": "in vivo"}, "[7]": {"tested_on": "Danio rerio", "assay": "Toxicity in wild type zebrafish embryos assessed as yolk edema at 500 ug/ml treated for 96 hrs post fertilization starting from 6 hrs post fertilization by inverted microscopic analysis relative to control", "format": "organism-based", "conditions": "in vivo"}, "[8]": {"species": "Danio rerio", "assay": "Toxicity in wild type zebrafish embryos assessed as skeletal deformities at 2500 ug/ml treated for 96 hrs post fertilization starting from 6 hrs post fertilization by inverted microscopic analysis relative to control", "format": "organism-based", "conditions": "in vivo"}, "[9]": {"species": "Danio rerio", "assay": "Toxicity in wild type zebrafish embryos assessed as teratogenic embryo at 2000 ug/ml treated for 96 hrs post fertilization starting from 6 hrs post fertilization by inverted microscopic analysis relative to control", "format": "organism-based", "conditions": "in vivo"}, "[10]": {"species": "Danio rerio", "assay": "Toxicity in wild type zebrafish embryos assessed as otoliths at 2500 ug/ml treated for 96 hrs post fertilization starting from 6 hrs post fertilization by inverted microscopic analysis relative to control", "format": "organism-based", "conditions": "in vivo"}, "[11]": {"species": "Danio rerio", "assay": "Toxicity in wild type zebrafish embryos assessed as skeletal deformities at 100 ug/ml treated for 96 hrs post fertilization starting from 6 hrs post fertilization by inverted microscopic analysis relative to control", "format": "organism-based", "conditions": "in vivo"}, "[12]": {"species": "Danio rerio", "assay": "Toxicity in wild type zebrafish embryos assessed as heart beat at 2000 ug/ml treated for 96 hrs post fertilization starting from 6 hrs post fertilization by inverted microscopic analysis relative to control", "format": "organism-based", "conditions": "in vivo"}, "[13]": {"species": "Danio rerio", "assay": "Toxicity in wild type zebrafish embryos assessed as notochord at 2500 ug/ml treated for 96 hrs post fertilization starting from 6 hrs post fertilization by inverted microscopic analysis relative to control", "format": "organism-based", "conditions": "in vivo"}, "[14]": {"species": "Danio rerio", "assay": "Toxicity in wild type zebrafish embryos assessed as notochord at 100 ug/ml treated for 96 hrs post fertilization starting from 6 hrs post fertilization by inverted microscopic analysis relative to control", "format": "organism-based", "conditions": "in vivo"}, "[15]": {"species": "Danio rerio", "assay": "Toxicity in wild type zebrafish embryos assessed as blood circulation at 500 ug/ml treated for 96 hrs post fertilization starting from 6 hrs post fertilization by inverted microscopic analysis relative to control", "format": "organism-based", "conditions": "in vivo"}, "[16]": {"species": "Danio rerio", "assay": "Toxicity in wild type zebrafish embryos assessed as eyes at 100 ug/ml treated for 96 hrs post fertilization starting from 6 hrs post fertilization by inverted microscopic analysis relative to control", "format": "organism-based", "conditions": "in vivo"}, "[17]": {"species": "Danio rerio", "assay": "Toxicity in wild type zebrafish embryos assessed as teratogenic embryo at 1000 ug/ml treated for 96 hrs post fertilization starting from 6 hrs post fertilization by inverted microscopic analysis relative to control", "format": "organism-based", "conditions": "in vivo"}, "[18]": {"species": "Danio rerio", "assay": "Toxicity in wild type zebrafish embryos assessed as teratogenic embryo at 2500 ug/ml treated for 96 hrs post fertilization starting from 6 hrs post fertilization by inverted microscopic analysis relative to control", "format": "organism-based", "conditions": "in vivo"}, "[19]": {"species": "Danio rerio", "assay": "Toxicity in wild type zebrafish embryos assessed as growth retardation at 1000 ug/ml treated for 96 hrs post fertilization starting from 6 hrs post fertilization by inverted microscopic analysis relative to control", "format": "organism-based", "conditions": "in vivo"}, "[20]": {"species": "Danio rerio", "assay": "Toxicity in wild type zebrafish embryos assessed as skeletal deformities at 2000 ug/ml treated for 96 hrs post fertilization starting from 6 hrs post fertilization by inverted microscopic analysis relative to control", "format": "organism-based", "conditions": "in vivo"}, "[21]": {"tested_on": "Neutrophil", "assay": "Anti-melanogenic activity in mpx:GFP transgenic zebrafish 24 hrs post fertilization embryo neutrophils assessed as decrease in pigmentation at 2 to 2.5 mg/ml", "format": "functional, cell-based", "conditions": "Danio rerio"}, "[22]": {"species": "Danio rerio", "assay": "Toxicity in wild type zebrafish embryos assessed as notochord at 1000 ug/ml treated for 96 hrs post fertilization starting from 6 hrs post fertilization by inverted microscopic analysis relative to control", "format": "organism-based", "conditions": "in vivo"}, "[23]": {"assay": "in vivo", "conditions": "zebrafish", "description": "Toxicity in wild type zebrafish embryos assessed as dead embryo at 12.5 ug/ml treated for 96 hrs post fertilization starting from 6 hrs post fertilization by inverted microscopic analysis relative to control"}, "[24]": {"biological_target": "T1, Tyrosinase (Danio rerio) (UniProt A0A8M1PAD4)", "T1 sequence (whole entry)": "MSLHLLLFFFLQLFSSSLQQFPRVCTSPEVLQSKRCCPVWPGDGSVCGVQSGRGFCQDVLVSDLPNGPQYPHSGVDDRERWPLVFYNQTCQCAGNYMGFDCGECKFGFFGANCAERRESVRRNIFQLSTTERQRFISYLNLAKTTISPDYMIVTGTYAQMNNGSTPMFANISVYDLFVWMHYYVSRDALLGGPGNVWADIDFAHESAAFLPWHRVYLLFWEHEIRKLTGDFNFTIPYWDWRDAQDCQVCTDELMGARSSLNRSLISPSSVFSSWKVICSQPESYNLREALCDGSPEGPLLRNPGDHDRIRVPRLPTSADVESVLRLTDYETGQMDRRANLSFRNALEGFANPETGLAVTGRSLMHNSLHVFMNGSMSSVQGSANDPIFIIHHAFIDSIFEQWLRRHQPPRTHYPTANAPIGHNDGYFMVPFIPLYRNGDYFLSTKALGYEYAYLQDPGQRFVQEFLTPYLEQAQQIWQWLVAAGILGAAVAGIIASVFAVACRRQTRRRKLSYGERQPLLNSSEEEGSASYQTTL", "assay": "Potency index, ratio of kojic acid IC50 to compound IC50 for zebrafish embryo tyrosinase assessed as residual activity"}, "[25]": {"species": "Danio rerio", "assay": "Toxicity in wild type zebrafish embryos assessed as blood circulation at 15 ug/ml treated for 96 hrs post fertilization starting from 6 hrs post fertilization by inverted microscopic analysis relative to control", "format": "organism-based", "conditions": "in vivo"}, "[26]": {"tested_on": "Melanocyte", "assay": "Cytotoxicity against wild type zebrafish embryo melanocytes assessed as change in morphology at to 25 ug/ml treated for 72 hrs post fertilization starting from 6 to 24 hrs post fertilization", "format": "cell-based, Danio rerio"}, "[27]": {"species": "Danio rerio", "assay": "Toxicity in wild type zebrafish embryos assessed as heart beat at 50 ug/ml treated for 96 hrs post fertilization starting from 6 hrs post fertilization by inverted microscopic analysis relative to control", "format": "organism-based", "conditions": "in vivo"}, "[28]": {"biological_target": "T2, Tyrosinase (Danio rerio, UniProt A0A8M1PAD4)", "T2 sequence (A0A8M1PAD4 whole entry)": "T1 sequence (whole entry)", "assay": "Inhibition of zebrafish embryo tyrosinase assessed as melanin production after 48 hrs"}, "[29]": {"species": "Danio rerio", "assay": "Toxicity in wild type zebrafish embryos assessed as notochord at 50 ug/ml treated for 96 hrs post fertilization starting from 6 hrs post fertilization by inverted microscopic analysis relative to control", "format": "organism-based", "conditions": "in vivo"}, "[30]": {"tested_on": "Melanocyte", "assay": "Cytotoxicity against wild type zebrafish embryo melanocytes assessed as size of melanocyte at to 25 ug/ml treated for 72 hrs post fertilization starting from 6 to 24 hrs post fertilization", "format": "cell-based, Danio rerio"}, "[31]": {"species": "Danio rerio", "assay": "Toxicity in wild type zebrafish embryos assessed as head malformation at 20 ug/ml treated for 96 hrs post fertilization starting from 6 hrs post fertilization by inverted microscopic analysis relative to control", "format": "organism-based", "conditions": "in vivo"}, "[32]": {"species": "Danio rerio", "assay": "Toxicity in wild type zebrafish embryos assessed as otoliths at 15 ug/ml treated for 96 hrs post fertilization starting from 6 hrs post fertilization by inverted microscopic analysis relative to control", "format": "organism-based", "conditions": "in vivo"}},
  "note": "pIC50: −log10 of the molar value. Calls of active or inactive are those of the source. The calls are words filed in the database; no cut-off is given here.",
  "data": [
    {"smiles": "O=c1cc(CO)occ1O", "note": "[KOJIC ACID]", "values": [
      {"measurement": "Activity", "setting": "[1]", "value": "Toxic"},
      {"measurement": "Activity", "setting": "[2]", "value": 31.67, "unit": "%"},
      {"measurement": "Activity", "setting": "[3]", "value": 1.67, "unit": "%"},
      {"measurement": "Activity", "setting": "[4]", "value": 0, "unit": "%"},
      {"measurement": "Activity", "setting": "[5]", "value": 0, "unit": "%"},
      {"measurement": "Activity", "setting": "[6]", "value": 0, "unit": "%"},
      {"measurement": "Activity", "setting": "[7]", "value": 0, "unit": "%"},
      {"measurement": "Activity", "setting": "[8]", "value": 98.33, "unit": "%"},
      {"measurement": "Activity", "setting": "[9]", "value": 100, "unit": "%"},
      {"measurement": "Activity", "setting": "[10]", "value": 86.67, "unit": "%"},
      {"measurement": "Activity", "setting": "[11]", "value": 0, "unit": "%"},
      {"measurement": "Activity", "setting": "[12]", "value": 96.67, "unit": "%"},
      {"measurement": "Activity", "setting": "[13]", "value": 0, "unit": "%"},
      {"measurement": "Activity", "setting": "[14]", "value": 0, "unit": "%"},
      {"measurement": "Activity", "setting": "[15]", "value": 0, "unit": "%"},
      {"measurement": "Activity", "setting": "[16]", "value": 0, "unit": "%"},
      {"measurement": "Activity", "setting": "[17]", "value": 98.33, "unit": "%"},
      {"measurement": "Activity", "setting": "[18]", "value": 100, "unit": "%"},
      {"measurement": "Activity", "setting": "[19]", "value": 0, "unit": "%"},
      {"measurement": "Activity", "setting": "[20]", "value": 78.33, "unit": "%"},
      {"measurement": "Activity", "setting": "[21]", "value": "Active"},
      {"measurement": "Activity", "setting": "[22]", "value": 0, "unit": "%"}
    ]},
    {"smiles": "Oc1ccc(O)cc1", "note": "[HYDROQUINONE]", "values": [
      {"measurement": "mortality at 12.5 ug/ml", "setting": "[23]", "value": 66.7, "unit": "%"}
    ]},
    {"smiles": "O=c1cc(-c2ccccc2)c2c(O)cc(O)cc2o1", "values": [
      {"measurement": "Ratio IC50", "setting": "[24]", "value": 86},
      {"measurement": "Activity", "setting": "[25]", "value": 0, "unit": "%"},
      {"measurement": "Activity", "setting": "[26]", "value": "Non-Toxic"},
      {"measurement": "Activity", "setting": "[27]", "value": 0, "unit": "%"},
      {"measurement": "pIC50", "setting": "[28]", "value": 4.38},
      {"measurement": "Activity", "setting": "[29]", "value": 0, "unit": "%"},
      {"measurement": "Activity", "setting": "[30]", "value": "Non-Toxic"},
      {"measurement": "Activity", "setting": "[31]", "value": 0, "unit": "%"},
      {"measurement": "Activity", "setting": "[32]", "value": 0, "unit": "%"}
    ]},
    {"smiles": "O=c1cc(-c2ccccc2)c2ccc(O)cc2o1", "values": [
      {"measurement": "Ratio IC50", "setting": "[24]", "value": 41},
      {"measurement": "Activity", "setting": "[25]", "value": 0, "unit": "%"},
      {"measurement": "Activity", "setting": "[26]", "value": "Non-Toxic"},
      {"measurement": "Activity", "setting": "[27]", "value": 0, "unit": "%"},
      {"measurement": "pIC50", "setting": "[28]", "value": 3.99},
      {"measurement": "Activity", "setting": "[29]", "value": 0, "unit": "%"},
      {"measurement": "Activity", "setting": "[30]", "value": "Non-Toxic"},
      {"measurement": "Activity", "setting": "[31]", "value": 0, "unit": "%"},
      {"measurement": "Activity", "setting": "[32]", "value": 0, "unit": "%"}
    ]}
  ]
}
